Source: patent US20240090547A1, “SWEETENER COMPOSITIONS COMPRISING MOGROSIDES AND USES THEREOF” (Firmenich Incorporated, priority 2021, published 2024)

Assays:
Assay type in all cases: in vivo, human
[1] = tested on: panel of flavorists; assay: Additional sensory testing for lemon-flavored (lemon-lime) beverage, flavorist panel; details: 600 ppm mogrosides, 0 to 10 scale, letter in parentheses = Duncan's test group
Experimental: (§1) A panel of flavorists at three locations evaluated lemon-lime beverage various mogrosides at a concentration of 600 ppm mogrosides for in-mouth attributes (peak sweetness, upfront sweetness, bitterness, and mouthfeel/thickness) and aftertaste attributes (sweet taste linger), on a 0 to 10 scale. The in-mouth attributes were evaluated while holding the sample in the mouth, while the aftertaste attributes were evaluated after expectoration.

[2] = tested on: panel of flavorists; assay: Additional sensory testing for vanilla milk, flavorist panel; details: 400 ppm mogrosides, 0 to 10 scale, letter in parentheses = Duncan's test group
Experimental: as §1, with “vanilla milk containing” for “lemon-lime beverage”, “400” for “600”, “expectoration. The data was analyzed using Duncan's new multiple range test and the scores are provided in the data below in parentheses.” for “expectoration.”

[3] = tested on: expert panelists; assay: Expert panelists' comparison of mogrosides with stevia; details: 'Examples 4 and 5', in words
[4] = tested on: panel of volunteers; assay: Sensory testing for apple drink (panel, in-mouth and aftertaste attributes); parameters: key to Sweetness / Delayed Sweetness / Bitterness / Lingering Sweetness / Overall Off-Taste / Licorice Aftertaste / Bitterness Aftertaste / Mouth Coating: 10-point scale; normalized per attribute to average Reb M scores; details: 10-point scale; for Bitterness / Delayed Sweetness / Global Flavor Intensity / Sweetness / Thickness/Body: in-mouth, average normalized score
Experimental: (§2) A panel of volunteers evaluated siamenoside I for in-mouth attributes (sweetness, delayed sweetness, sourness, bitterness, global flavor intensity, thickness/body, and astringence) and aftertaste (AT) attribtues (lingering sweetness, overall off-taste intensity, licorice off-tast, bitterness off-taste, and mouth coating) on a 10-point scale. Two replicate sessions were conducted, with a 20 minute break between sessions. There was a 90 second delay between samples within a session. Panelists evaluated all samples in a first session and evaluated the samples again a second time in a second session. Control samples of Rebaudioside M (Reb M) were evaluated during all sessions as a control. Mogroside V was also evaluated and sensory data for mogroside V is provided.
(§3) Data analysis was performed using 2-way analysis of variance (ANOVA) with interaction using Tukey's HSD test. The data was normalized for each attribute according to average scores for Reb M.
The average normalized in-mouth attributes for each sample of apple drink containing siamenoside I was evaluated below.
The average sweetness for each sample of apple drink containing siamenoside I was evaluated below.

[5] = tested on: panel of volunteers; assay: Sensory testing for lemon-lime carbonated soft drink; parameters: key to Sweetness / Delayed Sweetness / Bitterness / Lingering Sweetness / Overall Off-Taste / Licorice Aftertaste / Bitterness Aftertaste: 10-point scale; scores normalized to average Reb M scores; details: 600 ppm (mogroside V 600 mg [sic]), average normalized score, 10-point scale
Experimental: as §2, §3
A panel of volunteers evaluated the siamenoside I-containing lemon-lime carbonated soft drink for in-mouth attributes and aftertaste attributes according to the methods described in Example 1 above.
The average normalized in-mouth attributes for a sample of lemon-lime carbonated soft drink having […] was evaluated below.
The average normalized aftertaste attributes for a sample of lemon-lime carbonated soft drink having siamenoside I was evaluated below.

[6] = tested on: panel of volunteers; assay: Sensory testing for sparkling orange beverage; details: sparkling orange beverage, 250 ppm (mogroside V 250 mg [sic]), average normalized score, 10-point scale
Experimental: as §2, §3
A panel of volunteers evaluated a sparkling orange beverage containing siamenodie I for in-mouth attributes and aftertaste attributes according to the methods described in Example 1 above.
The average normalized in-mouth attributes for a sample of sparkling orange beverage containing siamenoside I was evaluated and the results are provided below.
The average normalized aftertaste attributes for a sample of sparkling orange beverage containing siamenoside I was evaluated and the results are provided below.

[7] = tested on: panel of volunteers; assay: Sensory testing for vanilla milk; details: average normalized score, 10-point scale; for Licorice Aftertaste / Lingering Sweetness / Mouth Coating / Overall Off-Taste: aftertaste
Experimental: as §2, §3
A panel of volunteers evaluated vanilla milk for in-mouth attributes and aftertaste attributes according to the methods described in Example 1 above.
The average normalized in-mouth attributes for each sample of vanilla milk was evaluated and the results are provided below.
The average normalized aftertaste attributes for each sample of vanilla milk containing siamenoside I was evaluated and the results are provided below.

[8] = aftertaste, after expectoration
[9] = 250 ppm (mogroside V 250 mg [sic]), aftertaste
[10] = 250 ppm (mogroside V 250 mg [sic])
[11] = 500 ppm (mogroside V 500 mg [sic]), aftertaste
[12] = 500 ppm (mogroside V 500 mg [sic])
[13] = 200 ppm (mogroside V 200 mg [sic])
[14] = 200 ppm (mogroside V 200 mg [sic]), in-mouth
[15] = 400 ppm (mogroside V 400 mg [sic])
[16] = 400 ppm (mogroside V 400 mg [sic]), in-mouth

C[C@H](CC[C@@H](O[C@@H]1O[C@H](CO[C@H]2O[C@H](CO)[C@@H](O)[C@H](O)[C@H]2O)[C@@H](O)[C@H](O)[C@H]1O[C@@H]1O[C@H](CO)[C@@H](O)[C@H](O)[C@H]1O)C(C)(C)O)[C@H]1CC[C@@]2(C)[C@]3(C)CC=C4[C@@H](CC[C@H](O[C@@H]5O[C@H](CO)[C@@H](O)[C@H](O)[C@H]5O)C4(C)C)[C@]3(C)[C@H](O)C[C@]12C [Siratose]
Sweet Linger [1, 8]: 6.143 (a) | Bitterness ([1]; in-mouth): 1.357 (a) | Mouthfeel/Thickness ([1]; in-mouth): 4.143 (a) | Peak Sweetness ([1]; in-mouth): 8.429 (a) | Upfront Sweetness ([1]; in-mouth): 6.571 (a) | Sweet Linger [2, 8]: 6.375 (a) | Bitterness ([2]; in-mouth): 1.750 (a) | Mouthfeel/Thickness ([2]; in-mouth): 5.375 (a) | Peak Sweetness ([2]; in-mouth): 8.000 (a) | Upfront Sweetness ([2]; in-mouth): 6.625 (a) | bitter aftertaste compared with stevia [3]: lower bitter aftertaste | licorice aftertaste compared with stevia [3]: lower licorice aftertaste | mouthfeel compared with stevia [3]: better mouthfeel

C=C1C[C@@]23CC[C@H]4[C@@](C)(CCC[C@@]4(C)C(=O)O[C@@H]4O[C@H](CO)[C@@H](O)[C@H](O[C@@H]5O[C@H](CO)[C@@H](O)[C@H](O)[C@H]5O)[C@H]4O[C@@H]4O[C@H](CO)[C@@H](O)[C@H](O)[C@H]4O)[C@@H]2CC[C@]1(O[C@@H]1O[C@H](CO)[C@@H](O)[C@H](O[C@@H]2O[C@H](CO)[C@@H](O)[C@H](O)[C@H]2O)[C@H]1O[C@@H]1O[C@H](CO)[C@@H](O)[C@H](O)[C@H]1O)C3 [Reb M, Rebaudioside M]
Bitterness Aftertaste [4, 9]: 1.1 | Licorice Aftertaste [4, 9]: 2.0 | Lingering Sweetness [4, 9]: 3.7 | Overall Off-Taste [4, 9]: 2.9 | Bitterness [4, 10]: 1.4 | Delayed Sweetness [4, 10]: 2.5 | Global Flavor Intensity [4, 10]: 4.0 | Sweetness [4, 10]: 4.9 | Thickness/Body [4, 10]: 1.5 | Licorice Aftertaste [4, 11]: 2.2 | Lingering Sweetness [4, 11]: 4.4 | Mouth Coating [4, 11]: 2.2 | Overall Off-Taste [4, 11]: 3.1 | Bitterness [4, 12]: 1.3 | Delayed Sweetness [4, 12]: 3.0 | Global Flavor Intensity [4, 12]: 4.7 | Sweetness [4, 12]: 6.1 | Thickness/Body [4, 12]: 1.9 | Bitterness Aftertaste ([5]; aftertaste): 1.4 | Licorice Aftertaste ([5]; aftertaste): 2.5 | Lingering Sweetness ([5]; aftertaste): 4.3 | Overall Off-Taste ([5]; aftertaste): 3.6 | Bitterness ([5]; in-mouth): 1.9 | Delayed Sweetness ([5]; in-mouth): 3.3 | Global Flavor Intensity ([5]; in-mouth): 4.8 | Sweetness ([5]; in-mouth): 6.0 | Licorice Aftertaste ([6]; aftertaste): 2.2 | Lingering Sweetness ([6]; aftertaste): 3.9 | Mouth Coating ([6]; aftertaste): 2.5 | Overall Off-Taste ([6]; aftertaste): 3.3 | Delayed Sweetness ([6]; in-mouth): 3.3 | Sweetness ([6]; in-mouth): 5.8 | Licorice Aftertaste [7, 13]: 0.8 | Lingering Sweetness [7, 13]: 2.6 | Mouth Coating [7, 13]: 3.1 | Overall Off-Taste [7, 13]: 1.8 | Astringence [7, 14]: 0.6 | Delayed Sweetness [7, 14]: 1.7 | Fattiness [7, 14]: 3.3 | Sourness [7, 14]: 0.7 | Sweetness [7, 14]: 4.9 | Licorice Aftertaste [7, 15]: 1.3 | Lingering Sweetness [7, 15]: 3.8 | Mouth Coating [7, 15]: 0.7 | Overall Off-Taste [7, 15]: 2.1 | Astringence [7, 16]: 0.6 | Bitterness [7, 16]: 0.8 | Delayed Sweetness [7, 16]: 2.2 | Fattiness [7, 16]: 3.8 | Global Flavor Intensity [7, 16]: 4.6 | Sourness [7, 16]: 0.7 | Sweetness [7, 16]: 6.6
